Laboratory results: article PMC5218480 (PLoS ONE, 2017)

System: MV-4-11 cells
Test: Gene expression microarray analysis (Affymetrix PrimeView) and GSEA
Assay type: cell-based, human
Set-up: RFU PODN (11730768_x_at) / Fold change /veh PODN (11730768_x_at) / RFU LINC00158 (11744669_a_at) / Fold change /veh LINC00158 (11744669_a_at) / RFU DUSP10 (11751237_a_at) / Fold change /veh DUSP10 (11751237_a_at) / RFU ID3 (11757404_x_at) / Fold change /veh ID3 (11757404_x_at) / RFU PLEKHG5 (11737974_s_at) / Fold change /veh PLEKHG5 (11737974_s_at) / RFU LRRC4B (11730491_at) / Fold change /veh LRRC4B (11730491_at) / RFU GIMAP4 (11747438_a_at) / Fold change /veh GIMAP4 (11747438_a_at) / RFU KRT8 (11758183_x_at) / Fold change /veh KRT8 (11758183_x_at) / RFU CNN1 (11734310_a_at) / Fold change /veh CNN1 (11734310_a_at) / RFU VPS37D (11726825_at) / Fold change /veh VPS37D (11726825_at) / RFU C10orf10 (11716522_x_at) / Fold change /veh C10orf10 (11716522_x_at) / RFU KIR2DL2 /// KIR2DL4 /// KIR2DL5A /// KIR2DL5B /// KIR2DS1 /// KIR2DS2 /// KIR2DS3 /// KIR2DS4 /// KIR3DL3 /// KIR3DL3 /// KIR3DS1 (11738374_at) / Fold change /veh KIR2DL2 /// KIR2DL4 /// KIR2DL5A /// KIR2DL5B /// KIR2DS1 /// KIR2DS2 /// KIR2DS3 /// KIR2DS4 /// KIR3DL3 /// KIR3DL3 /// KIR3DS1 (11738374_at) / RFU C1QL1 (11718748_at) / Fold change /veh C1QL1 (11718748_at) / RFU TMPRSS4 (11747572_a_at) / Fold change /veh TMPRSS4 (11747572_a_at) / RFU HAMP (11756126_x_at) / Fold change /veh HAMP (11756126_x_at) / RFU RNFT2 (11725882_a_at) / Fold change /veh RNFT2 (11725882_a_at) / RFU NR4A2 (11747474_a_at) / Fold change /veh NR4A2 (11747474_a_at) / RFU ABCC12 (11746883_a_at) / Fold change /veh ABCC12 (11746883_a_at) / RFU TMEM136 (11760407_x_at) / Fold change /veh TMEM136 (11760407_x_at) / RFU CLDN22 /// WWC2 (11732394_at) / Fold change /veh CLDN22 /// WWC2 (11732394_at) / RFU HLA-DPB1 (11760878_x_at) / Fold change /veh HLA-DPB1 (11760878_x_at) / RFU SPINT1 (11716480_a_at) / Fold change /veh SPINT1 (11716480_a_at) / RFU GAP43 (11754022_s_at) / Fold change /veh GAP43 (11754022_s_at) / RFU A4GNT (11735810_at) / Fold change /veh A4GNT (11735810_at) / RFU PRB3 (11715151_x_at) / Fold change /veh PRB3 (11715151_x_at) / RFU TUBB4B (11761932_at) / Fold change /veh TUBB4B (11761932_at) / RFU CAPN14 (11732068_a_at) / Fold change /veh CAPN14 (11732068_a_at) / RFU TMCC2 (11721928_a_at) / Fold change /veh TMCC2 (11721928_a_at) / RFU IRGQ (11745062_a_at) / Fold change /veh IRGQ (11745062_a_at) / RFU FAM174B (11720279_a_at) / Fold change /veh FAM174B (11720279_a_at) / RFU TMPRSS4 (11748680_a_at) / Fold change /veh TMPRSS4 (11748680_a_at) / RFU FAM212B (11763350_a_at) / Fold change /veh FAM212B (11763350_a_at) / RFU PLEKHG5 (11743358_a_at) / Fold change /veh PLEKHG5 (11743358_a_at) / RFU ZSCAN30 (11745921_a_at) / Fold change /veh ZSCAN30 (11745921_a_at) / RFU CMKLR1 (11741424_a_at) / Fold change /veh CMKLR1 (11741424_a_at) / RFU LOC101060620 /// MAPK8IP1 (11723275_at) / Fold change /veh LOC101060620 /// MAPK8IP1 (11723275_at) / RFU SPTSSB (11747773_x_at) / Fold change /veh SPTSSB (11747773_x_at) / RFU PRSS12 (11739890_at) / Fold change /veh PRSS12 (11739890_at) / RFU BIN1 (11741810_x_at) / Fold change /veh BIN1 (11741810_x_at) / RFU WNT11 (11732464_a_at) / Fold change /veh WNT11 (11732464_a_at) / RFU C10orf10 (11716521_a_at) / Fold change /veh C10orf10 (11716521_a_at) / RFU C5orf56 (11738089_at) / Fold change /veh C5orf56 (11738089_at) / RFU CYB561 (11721691_x_at) / Fold change /veh CYB561 (11721691_x_at) / RFU ANKRD19P (11752326_a_at) / Fold change /veh ANKRD19P (11752326_a_at) / RFU OR2T12 /// OR2T33 /// OR2T8 (11738714_s_at) / Fold change /veh OR2T12 /// OR2T33 /// OR2T8 (11738714_s_at) / RFU VCAN (11748164_a_at) / Fold change /veh VCAN (11748164_a_at) / RFU JSRP1 (11732532_at) / Fold change /veh JSRP1 (11732532_at) / RFU KRTAP10-11 (11738290_x_at) / Fold change /veh KRTAP10-11 (11738290_x_at) / RFU MYO3A (11730013_a_at) / Fold change /veh MYO3A (11730013_a_at) / RFU EBF3 (11725865_a_at) / Fold change /veh EBF3 (11725865_a_at) / RFU CAMK2N1 (11719241_x_at) / Fold change /veh CAMK2N1 (11719241_x_at) / RFU C5orf56 (11738088_a_at) / Fold change /veh C5orf56 (11738088_a_at) / RFU OLFML3 (11715873_a_at) / Fold change /veh OLFML3 (11715873_a_at) / RFU LOC100653217 /// NTM (11731650_a_at) / Fold change /veh LOC100653217 /// NTM (11731650_a_at) / RFU MAPK11 (11762145_a_at) / Fold change /veh MAPK11 (11762145_a_at) / RFU FIZ1 (11724087_x_at) / Fold change /veh FIZ1 (11724087_x_at) / RFU OASL (11726364_x_at) / Fold change /veh OASL (11726364_x_at) / RFU SOX15 (11748057_x_at) / Fold change /veh SOX15 (11748057_x_at) / RFU CD79A (11719716_a_at) / Fold change /veh CD79A (11719716_a_at) / RFU HIST1H1D (11736915_at) / Fold change /veh HIST1H1D (11736915_at) / RFU CASKIN2 (11723855_a_at) / Fold change /veh CASKIN2 (11723855_a_at) / RFU LOC730098 (11760151_x_at) / Fold change /veh LOC730098 (11760151_x_at) / RFU OR4N2 (11742367_at) / Fold change /veh OR4N2 (11742367_at) / RFU PRRT2 (11749266_a_at) / Fold change /veh PRRT2 (11749266_a_at) / RFU SNX32 (11753110_a_at) / Fold change /veh SNX32 (11753110_a_at) / RFU CDHR5 (11726645_a_at) / Fold change /veh CDHR5 (11726645_a_at) / RFU RCAN1 (11760418_a_at) / Fold change /veh RCAN1 (11760418_a_at) / RFU FAM167A (11723789_a_at) / Fold change /veh FAM167A (11723789_a_at) / RFU FAM26E (11764081_at) / Fold change /veh FAM26E (11764081_at) / RFU ISYNA1 (11749810_s_at) / Fold change /veh ISYNA1 (11749810_s_at) / RFU ACY1 (11761880_at) / Fold change /veh ACY1 (11761880_at) / RFU 11764098_at / Fold change /veh 11764098_at / RFU SAMD14 (11745864_x_at) / Fold change /veh SAMD14 (11745864_x_at) / RFU NPB (11741838_a_at) / Fold change /veh NPB (11741838_a_at) / RFU TMPRSS6 (11731388_a_at) / Fold change /veh TMPRSS6 (11731388_a_at) / RFU KRTAP10-2 (11738614_at) / Fold change /veh KRTAP10-2 (11738614_at) / RFU ARHGAP8 /// PRR5-ARHGAP8 (11727945_x_at) / Fold change /veh ARHGAP8 /// PRR5-ARHGAP8 (11727945_x_at) / RFU KRTAP5-7 /// NADSYN1 (11734609_at) / Fold change /veh KRTAP5-7 /// NADSYN1 (11734609_at) / RFU RASL12 (11751679_a_at) / Fold change /veh RASL12 (11751679_a_at) / RFU CDKN2B (11736163_a_at) / Fold change /veh CDKN2B (11736163_a_at) / RFU PRF1 (11729649_at) / Fold change /veh PRF1 (11729649_at) / RFU, ZNF638 /// ZNF638-IT1 / Fold change vs veh, ZNF638 /// ZNF638-IT1 / RFU, PANK3 / Fold change vs veh, PANK3 / RFU, SH3YL1 / Fold change vs veh, SH3YL1 / RFU, ZEB2 / Fold change vs veh, ZEB2 / RFU, NRIP1 / Fold change vs veh, NRIP1 / RFU, PTTG1IP / Fold change vs veh, PTTG1IP / RFU, CAPN2 / Fold change vs veh, CAPN2 / RFU, MED14 / Fold change vs veh, MED14 / RFU, SNORA58 / Fold change vs veh, SNORA58 / RFU, C1orf63 / Fold change vs veh, C1orf63 / RFU, LRRFIP1 / Fold change vs veh, LRRFIP1 / RFU, NDUFAF7 / Fold change vs veh, NDUFAF7 / RFU, SLC12A2 / Fold change vs veh, SLC12A2 / RFU, IBTK / Fold change vs veh, IBTK / RFU, ESF1 / Fold change vs veh, ESF1 / Fold change vs veh, TMEM50B / RFU, TAOK1 / Fold change vs veh, TAOK1 / RFU, ACBD3 / Fold change vs veh, ACBD3 / RFU, TMA16 / Fold change vs veh, TMA16 / RFU, RWDD3 / Fold change vs veh, RWDD3 / RFU, BCAT1 / Fold change vs veh, BCAT1 / RFU, EDEM3 / Fold change vs veh, EDEM3 / RFU, TMEM33 / Fold change vs veh, TMEM33 / RFU, WDR75 / Fold change vs veh, WDR75 / RFU, AHCTF1 / Fold change vs veh, AHCTF1 / RFU, TFRC / Fold change vs veh, TFRC / RFU, ZDHHC17 / Fold change vs veh, ZDHHC17 / RFU, NOM1 / Fold change vs veh, NOM1 / RFU, ARL8B / Fold change vs veh, ARL8B / RFU, ZBTB11 / Fold change vs veh, ZBTB11 / RFU, TAMM41 / Fold change vs veh, TAMM41 / RFU, KIAA1704 /// LOC100996395 / Fold change vs veh, KIAA1704 /// LOC100996395 / RFU, ING1 / Fold change vs veh, ING1 / RFU, TRMT61B / Fold change vs veh, TRMT61B / RFU, FUBP3 / Fold change vs veh, FUBP3 / RFU, TP53 / Fold change vs veh, TP53 / RFU, TNKS2 / Fold change vs veh, TNKS2 / RFU, ZFP14 / Fold change vs veh, ZFP14 / RFU, ACTR2 / Fold change vs veh, ACTR2 / RFU, PPP3R1 / Fold change vs veh, PPP3R1 / RFU, PIK3R1 / Fold change vs veh, PIK3R1 / RFU, HNRNPA1 / Fold change vs veh, HNRNPA1 / RFU, RNF170 / Fold change vs veh, RNF170 / RFU, ZNF28 / Fold change vs veh, ZNF28 / RFU, RNGTT / Fold change vs veh, RNGTT / RFU, OGT / Fold change vs veh, OGT / RFU, BRD1 / Fold change vs veh, BRD1 / RFU, MARS / Fold change vs veh, MARS / RFU, ZNF655 / Fold change vs veh, ZNF655 / RFU, FAHD1 / Fold change vs veh, FAHD1 / RFU, BDP1 / Fold change vs veh, BDP1 / RFU, LRRCC1 / Fold change vs veh, LRRCC1 / RFU, ARID1A / Fold change vs veh, ARID1A / RFU, ZNF146 / Fold change vs veh, ZNF146 / RFU, ZNF330 / Fold change vs veh, ZNF330 / RFU, GPN3 / Fold change vs veh, GPN3 / RFU, C9orf123 / Fold change vs veh, C9orf123 / RFU, N4BP2L2 / Fold change vs veh, N4BP2L2 / RFU, ARFIP1 / Fold change vs veh, ARFIP1 / RFU, FAM179B / Fold change vs veh, FAM179B / RFU, BCL10 / Fold change vs veh, BCL10 / RFU, UHRF1BP1L / Fold change vs veh, UHRF1BP1L / RFU, BET1 / Fold change vs veh, BET1 / RFU, CNOT2 / Fold change vs veh, CNOT2 / RFU, ZNF268 / Fold change vs veh, ZNF268 / Fold change vs veh, ZNF507 / RFU, DGCR2 / Fold change vs veh, DGCR2 / RFU, WDSUB1 / Fold change vs veh, WDSUB1 / Fold change vs veh, HSP90B1 /// MIR3652 / RFU, ADSS / Fold change vs veh, ADSS / RFU, GK / Fold change vs veh, GK / RFU, ZNF148 / Fold change vs veh, ZNF148 / RFU, TAF9 / Fold change vs veh, TAF9 / RFU, SLC1A5 / Fold change vs veh, SLC1A5 / RFU, SLMO2 / Fold change vs veh, SLMO2 / RFU, ABCC4 / Fold change vs veh, ABCC4 / RFU, LOC101060439 /// RAP1B / Fold change vs veh, LOC101060439 /// RAP1B / RFU, RFX7 / Fold change vs veh, RFX7 / RFU, GTPBP10 / Fold change vs veh, GTPBP10 / RFU, CNEP1R1 / Fold change vs veh, CNEP1R1 / RFU, BIVM-ERCC5 /// ERCC5 / Fold change vs veh, BIVM-ERCC5 /// ERCC5 / RFU, ILF3 / Fold change vs veh, ILF3 / RFU 11762660_at / Fold change /veh 11762660_at / RFU VCAN (11757783_s_at) / Fold change /veh VCAN (11757783_s_at) / RFU DDX43 (11728927_at) / Fold change /veh DDX43 (11728927_at) / RFU KRT8 (11758188_x_at) / Fold change /veh KRT8 (11758188_x_at) / RFU NKD1 (11759106_at) / Fold change /veh NKD1 (11759106_at) / RFU SRD5A1 (11742802_a_at) / Fold change /veh SRD5A1 (11742802_a_at) / RFU TPSAB1 /// TPSB2 (11721975_s_at) / Fold change /veh TPSAB1 /// TPSB2 (11721975_s_at) / RFU GSTM3 (11746129_a_at) / Fold change /veh GSTM3 (11746129_a_at) / RFU IL23R (11737362_x_at) / Fold change /veh IL23R (11737362_x_at) / RFU TMEM51 (11727254_a_at) / Fold change /veh TMEM51 (11727254_a_at) / RFU PIWIL2 (11732686_x_at) / Fold change /veh PIWIL2 (11732686_x_at) / RFU ORM1 (11744905_x_at) / Fold change /veh ORM1 (11744905_x_at) / RFU CCDC152 (11743942_at) / Fold change /veh CCDC152 (11743942_at) / RFU ECM1 (11717891_a_at) / Fold change /veh ECM1 (11717891_a_at) / RFU IL23R (11748794_a_at) / Fold change /veh IL23R (11748794_a_at) / RFU TNFAIP8L3 (11732012_x_at) / Fold change /veh TNFAIP8L3 (11732012_x_at) / RFU MBOAT4 (11741988_at) / Fold change /veh MBOAT4 (11741988_at) / RFU 11764193_at / Fold change /veh 11764193_at / RFU TMEM53 (11763286_at) / Fold change /veh TMEM53 (11763286_at) / RFU MAGEB2 (11727129_at) / Fold change /veh MAGEB2 (11727129_at) / RFU TMEM200A (11744735_a_at) / Fold change /veh TMEM200A (11744735_a_at) / RFU CCDC152 (11751479_a_at) / Fold change /veh CCDC152 (11751479_a_at) / RFU FAM211A (11726209_a_at) / Fold change /veh FAM211A (11726209_a_at) / RFU RGS16 (11746705_a_at) / Fold change /veh RGS16 (11746705_a_at) / RFU VCAN (11755009_s_at) / Fold change /veh VCAN (11755009_s_at) / RFU RHOB (11743442_s_at) / Fold change /veh RHOB (11743442_s_at) / RFU RGS16 (11720943_a_at) / Fold change /veh RGS16 (11720943_a_at) / RFU RGS16 (11720944_at) / Fold change /veh RGS16 (11720944_at) / RFU, VPS4B / Fold change vs veh, VPS4B / RFU, CREB1 / Fold change vs veh, CREB1 / RFU, DNAJC13 / Fold change vs veh, DNAJC13 / RFU, GNAQ / Fold change vs veh, GNAQ / RFU, CDK5R1 / Fold change vs veh, CDK5R1 / RFU, ZRANB3 / Fold change vs veh, ZRANB3 / RFU, CUL4A / Fold change vs veh, CUL4A / RFU, CCNY / Fold change vs veh, CCNY / RFU, UFL1 / Fold change vs veh, UFL1 / RFU, COG3 / Fold change vs veh, COG3 / RFU, DIAPH2 / Fold change vs veh, DIAPH2 / RFU, SKA2 / Fold change vs veh, SKA2 / RFU, AFF3 / Fold change vs veh, AFF3 / RFU, LMF1 / Fold change vs veh, LMF1 / RFU, IPO11 / Fold change vs veh, IPO11 / RFU, DFFB / Fold change vs veh, DFFB / RFU, FOXP1 / Fold change vs veh, FOXP1 / RFU, CARD8 / Fold change vs veh, CARD8 / RFU, STRN3 / Fold change vs veh, STRN3 / RFU, ADK / Fold change vs veh, ADK / RFU, RASSF2 / Fold change vs veh, RASSF2 / RFU, WIPF1 / Fold change vs veh, WIPF1 / RFU, LARP1B / Fold change vs veh, LARP1B / RFU, RASA1 / Fold change vs veh, RASA1 / RFU, RB1 / Fold change vs veh, RB1 / RFU, PPFIA1 / Fold change vs veh, PPFIA1 / RFU, MAT2A / Fold change vs veh, MAT2A / RFU, CCT5 / Fold change vs veh, CCT5 / RFU, WDR92 / Fold change vs veh, WDR92 / RFU, CUX1 / Fold change vs veh, CUX1 / RFU, TTC7A / Fold change vs veh, TTC7A / RFU, TMEM135 / Fold change vs veh, TMEM135 / RFU, DEPTOR / Fold change vs veh, DEPTOR / RFU, CPM / Fold change vs veh, CPM / RFU, DNAJB6 / Fold change vs veh, DNAJB6 / RFU, CACNA2D3 / Fold change vs veh, CACNA2D3 / RFU, DTX4 / Fold change vs veh, DTX4 / RFU, TFCP2 / Fold change vs veh, TFCP2 / RFU, GMCL1 /// GMCL1P1 / Fold change vs veh, GMCL1 /// GMCL1P1 / RFU, AEBP2 / Fold change vs veh, AEBP2 / RFU, SNHG1 /// SNORD22 /// SNORD25 /// SNORD26 /// SNORD27 /// SNORD28 /// SNORD29 /// SNORD31 / Fold change vs veh, SNHG1 /// SNORD22 /// SNORD25 /// SNORD26 /// SNORD27 /// SNORD28 /// SNORD29 /// SNORD31 / Fold change (Aza/veh), C12orf56 (ProbeSet 11735607_a_at) / Fold change (ACY-1035/veh), C12orf56 (ProbeSet 11735607_a_at) / Fold change (Aza/veh), FGFR1OP (ProbeSet 11751329_s_at) / Fold change (ACY-1035/veh), FGFR1OP (ProbeSet 11751329_s_at) / Fold change (Aza/veh), VPS36 (ProbeSet 11739960_a_at) / Fold change (ACY-1035/veh), VPS36 (ProbeSet 11739960_a_at) / RFU SYPL1 (11715823_x_at) / Fold change /veh SYPL1 (11715823_x_at) / RFU IGFBP7 (11715501_s_at) / Fold change /veh IGFBP7 (11715501_s_at) / RFU REEP3 (11722064_at) / Fold change /veh REEP3 (11722064_at) / RFU IGLL1 (11728026_x_at) / Fold change /veh IGLL1 (11728026_x_at): dose or concentration left out as unconfirmed
Details: MV-4-11 cells, 48 hours

Structure (SMILES): Nc1ncn([C@@H]2O[C@H](CO)[C@@H](O)[C@H]2O)c(=O)n1 [azacitidine]
- Fold change /veh SYPL1 (11715823_x_at): 0.82
